Laboratory results: patent US9676723B2, “Factor XIa inhibitors” (Merck Sharp & Dohme Corp., priority 2014, dated 2017)
Structures can show the parent of a compound that is named as a salt.

Target: T1, human Factor XIa (Homo sapiens, UniProt P03951)
T1 construct: purified human Factor XIa; purchased Sekisui Diagnostics
Experiment: Factor XIa Assay (fluorogenic substrate Z-Gly-Pro-Arg-AFC hydrolysis)
Format: biochemical
Details: purified human Factor XIa 40 pM; substrate Z-Gly-Pro-Arg-AFC 100 μM; 50 mM HEPES pH 7.4; read-out: hu Factor XIa Ki
Protocol: The effectiveness of compounds of the present invention as inhibitors of Coagulation Factor XIa can be determined using a relevant purified serine protease, and an appropriate synthetic substrate. The rate of hydrolysis of the chromogenic or fluorogenic substrate by the relevant serine protease was measured both in the absence and presence of compounds of the present invention. Assays were conducted at room temperature or at 37° C. […] A decrease in the rate of fluorescence change in the presence of inhibitor is indicative of enzyme inhibition. Such methods are known to one skilled in the art. The results of this assay are expressed as the inhibitory constant, Ki.
Factor XIa determinations were made in 50 mM HEPES buffer at pH 7.4 containing 150 mM NaCl, 5 mM CaCl2, and 0.1% PEG 8000 (polyethylene glycol; JT Baker or Fisher Scientific). Determinations were made using purified human Factor XIa at a final concentration of 40 pM (Sekisui Diagnostics) and the synthetic substrate, Z-Gly-Pro-Arg-AFC, TFA salt (Sigma #C0980) at a concentration of 100 μM.
Activity assays were performed by diluting a stock solution of substrate at least tenfold to a final concentration ≦0.1 Km into a solution containing enzyme or enzyme equilibrated with inhibitor. Times required to achieve equilibration between enzyme and inhibitor were determined in control experiments. Initial velocities of product formation in the absence (Vo) or presence of inhibitor (Vi) were measured. Assuming competitive inhibition, and that unity is negligible compared Km/[S], [I]/e, and [I]/e (where [S], [I], and e respectively represent the total concentrations, of substrate, inhibitor and enzyme), the equilibrium constant (Ki) for dissociation of the inhibitor from the enzyme can be obtained from the dependence of Vo/Vi on [I] shown in the following equation. Vo/Vi=1+[I]/Ki

T1 sequence (P03951 388-625 limits assumed): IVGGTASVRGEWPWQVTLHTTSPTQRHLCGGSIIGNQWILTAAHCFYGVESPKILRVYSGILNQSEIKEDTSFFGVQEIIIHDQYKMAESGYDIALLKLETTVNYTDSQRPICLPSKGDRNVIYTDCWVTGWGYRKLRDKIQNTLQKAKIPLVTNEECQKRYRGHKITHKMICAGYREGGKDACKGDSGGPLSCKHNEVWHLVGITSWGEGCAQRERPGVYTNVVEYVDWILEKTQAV
T1 sequence (P03951 19-387 partner limits assumed): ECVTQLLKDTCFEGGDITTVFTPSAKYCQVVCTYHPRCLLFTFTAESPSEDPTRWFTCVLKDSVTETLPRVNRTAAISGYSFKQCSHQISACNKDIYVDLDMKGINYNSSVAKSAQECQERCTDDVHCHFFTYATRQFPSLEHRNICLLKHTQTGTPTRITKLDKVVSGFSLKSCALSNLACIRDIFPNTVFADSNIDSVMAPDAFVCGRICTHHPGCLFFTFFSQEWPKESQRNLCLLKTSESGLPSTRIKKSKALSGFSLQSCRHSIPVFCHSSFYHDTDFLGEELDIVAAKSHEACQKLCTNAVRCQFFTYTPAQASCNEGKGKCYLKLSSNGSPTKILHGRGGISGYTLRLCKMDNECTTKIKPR

| Ki [nM] | Compound |
| --- | --- |
| 506 | NCc1ccc2c(c1)CCN([C@@H](Cc1ccccc1)c1nc(Cl)c(-c3ccc(NC(=O)OC4CCCC4)cc3)[nH]1)C2=O [Example 15] |
| 240 | Cc1ncc(-c2ccc(NC(=O)[C@H](Cc3ccccc3)N3CCc4cc(CN)ccc4C3=O)cc2)o1 [Example 22] |
| 207 | Cn1ccc(-c2ccc(NC(=O)[C@H](Cc3ccccc3)N3CCc4cc(CN)ccc4C3=O)cc2)n1 [Example 26] |
| 435 | CC(C)COC(=O)Nc1ccc(-c2[nH]c([C@H](Cc3ccccc3)N3CCc4cc(CN)ccc4C3=O)nc2Cl)cc1 [Example 14] |
| 14 | COC(=O)Nc1ccc(-c2[nH]c([C@H](Cc3ccccc3)N3CCc4cc(CN)ccc4C3=O)nc2Cl)cc1 [Example 6] |
| 84 | COC(=O)Nc1ccc(-c2[nH]c([C@H](Cc3ccccc3)N3CCc4cc(CN)ccc4C3=O)nc2C)cc1 [Example 11] |
| 254 | Cc1nnc(-c2ccc(NC(=O)[C@H](Cc3ccccc3)N3CCc4cc(CN)ccc4C3=O)cc2)[nH]1 [Example 21] |
| 68.9 | NCc1ccc2c(c1)CCN([C@@H](Cc1ccccc1)C(=O)Nc1ccc(-c3c[nH]cn3)cc1)C2=O [Example 19] |
| 198 | COC(=O)Nc1ccc(-c2cnc([C@H](Cc3ccccc3)N3CCc4c(ccc(CN)c4C4CC4)C3=O)[nH]2)cc1 [Example 29, (S)-methyl (4-(2-(1-(6-(aminomethyl)-5-cyclopropyl-1-oxo-3,4-dihydroisoquinolin-2(1H)-yl)-2-phenylethyl)-1H-imidazol-5-yl)phenyl)carbamate 2,2,2-trifluoroacetate] |
| 94.3 | NCc1ccc2c(c1)CCN([C@@H](Cc1ccccc1)C(=O)Nc1ccc(-c3cc[nH]n3)cc1)C2=O [Example 20] |
| 116 | COC(=O)Nc1ccc(-c2cnc([C@H](Cc3ccccc3)N3CCc4cc(CN)ccc4C3=O)[nH]2)cc1 [Example 2, (S)-METHYL (4-(2-(1-(6-(AMINOMETHYL)-1-OXO-3,4-DIHYDROISOQUINOLIN-2(1H)-YL)-2-PHENYLETHYL)-1H-IMIDAZOL-5-YL)PHENYL)CARBAMATE 2,2,2-TRIFLUOROACETATE] |
| 1080 | Cc1ccc(-c2ccc(NC(=O)[C@H](Cc3ccccc3)N3CCc4cc(CN)ccc4C3=O)cc2)o1 [Example 23] |

Second part, the compound before the results:

| Compound | Ki [nM] |
| --- | --- |
| NCc1ccc2c(c1)CCN([C@@H](Cc1ccccc1)c1ncc(-c3ccc4c(N)n[nH]c4c3)[nH]1)C2=O [Example 12] | 53 |
| NCc1ccc2c(c1)CN([C@@H](Cc1ccccc1)C(=O)Nc1ccc(C(=O)O)cc1)C2=O [Example 3] | 308 |
| Cc1nc2ccc(NC(=O)[C@H](Cc3ccccc3)N3CCc4cc(CN)ccc4C3=O)cc2s1 [Example 27] | 284 |
| Cc1nsc2ccc(NC(=O)[C@H](Cc3ccccc3)N3CCc4cc(CN)ccc4C3=O)cc12 [Example 28] | 1470 |
| NCc1ccc2c(c1)CCN([C@@H](Cc1ccccc1)C(=O)Nc1ccc3ccncc3c1)C2=O [Example 24] | 1080 |
| NCc1ccc2c(c1)CCN([C@@H](Cc1ccccc1)C(=O)Nc1ccc(C(=O)O)cc1)C2=O [Example 1, 4-({(2S)-2-[6-(aminomethyl)-1-oxo-3,4-dihydroisoquinolin-2(1H)-yl]-3-phenylpropanoyl}amino)benzoic acid trifluoroacetate] | 44 |
| NCc1ccc2c(c1)CCN([C@@H](Cc1ccccc1)C(=O)Nc1cccc(F)c1)C2=O [Example 9] | 1080 |
| NCc1ccc2c(c1)CCN([C@@H](Cc1ccccc1)C(=O)Nc1ccc3[nH]ncc3c1)C2=O [Example 7] | 246 |
| NCc1ccc2c(c1)CCN([C@@H](Cc1ccccc1)C(=O)Nc1ccc(-c3cnc(C4CC4)o3)cc1)C2=O [Example 25] | 221 |
| Cc1nc2cc(NC(=O)[C@H](Cc3ccccc3)N3CCc4cc(CN)ccc4C3=O)ccc2s1 [Example 8] | 907 |
| NCc1ccc2c(c1)CCN(C(Cc1ccccc1)C(=O)Nc1ccc(C(=O)O)cc1)C2=O (centres unmarked) [Example 4] | 176 |
| NCc1ccc2c(c1)CCN([C@@H](Cc1ccccc1)c1ncc(-c3ccc(C(=O)O)s3)[nH]1)C2=O [Example 5] | 546 |
| NCc1ccc2c(c1)CCN([C@@H](Cc1ccccc1)C(=O)Nc1ccc3c(N)n[nH]c3c1)C2=O [Example 13] | 151 |
| NCc1ccc2c(c1)CCN([C@@H](Cc1ccccc1)c1ncc(-c3cccc(F)c3)[nH]1)C2=O [Example 10] | 4130 |
